A word on the IC50: it is the concentration that gives 50% inhibition. A low value points to greater potency in that assay. Usually EC50 stands for the concentration giving half of the maximal effect.

Here are results for 17 molecules from patent US11873298B2, “Compounds and uses thereof” (JANSSEN PHARMACEUTICA NV, priority 2017, dated 2024).

Assay [1] addresses T1, SCD5 (Homo sapiens, UniProt Q86SK9).
T1 construct: host or cells: S. cerevisiae ole1Δ strain (W303 pdr1Δ pdr3Δ background), plasmid pRS316 with TDH3 promoter and CYC1 terminator
T1 sequence (Q86SK9 1-330): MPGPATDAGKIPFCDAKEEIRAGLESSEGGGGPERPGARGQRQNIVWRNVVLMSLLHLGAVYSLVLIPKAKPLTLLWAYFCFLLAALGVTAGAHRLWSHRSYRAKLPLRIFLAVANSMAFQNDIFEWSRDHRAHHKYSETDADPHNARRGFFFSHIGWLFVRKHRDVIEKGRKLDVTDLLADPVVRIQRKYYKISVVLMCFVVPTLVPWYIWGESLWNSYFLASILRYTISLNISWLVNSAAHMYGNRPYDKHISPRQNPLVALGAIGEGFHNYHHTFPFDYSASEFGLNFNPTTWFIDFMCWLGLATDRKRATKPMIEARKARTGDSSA
Nature of the assay: Growth inhibition of humanized yeast strain expressing SCD5 as sole desaturase. Type of assay: cell-based. Particulars: humanized yeast strain expressing SCD5. In outline: (§1)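 Plasmid-complemented ole1Δ yeast, drug-pump deleted (pdr1Δ pdr3Δ), depend solely on the introduced Ole1, SCD1 or SCD5 desaturase. Compounds are added from DMSO to cells in uracil-free galactose medium, 2× density 0.02, and OD600 is read after 24 h or 40 h respectively.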

Assay [2] addresses T2, Ole1 (Saccharomyces cerevisiae, UniProt P21147).
T2 construct: expressed in transfected cells; host or cells: S. cerevisiae ole1Δ strain (W303 pdr1Δ pdr3Δ background), plasmid pRS316 with TDH3 promoter and CYC1 terminator
T2 sequence (P21147 1-510): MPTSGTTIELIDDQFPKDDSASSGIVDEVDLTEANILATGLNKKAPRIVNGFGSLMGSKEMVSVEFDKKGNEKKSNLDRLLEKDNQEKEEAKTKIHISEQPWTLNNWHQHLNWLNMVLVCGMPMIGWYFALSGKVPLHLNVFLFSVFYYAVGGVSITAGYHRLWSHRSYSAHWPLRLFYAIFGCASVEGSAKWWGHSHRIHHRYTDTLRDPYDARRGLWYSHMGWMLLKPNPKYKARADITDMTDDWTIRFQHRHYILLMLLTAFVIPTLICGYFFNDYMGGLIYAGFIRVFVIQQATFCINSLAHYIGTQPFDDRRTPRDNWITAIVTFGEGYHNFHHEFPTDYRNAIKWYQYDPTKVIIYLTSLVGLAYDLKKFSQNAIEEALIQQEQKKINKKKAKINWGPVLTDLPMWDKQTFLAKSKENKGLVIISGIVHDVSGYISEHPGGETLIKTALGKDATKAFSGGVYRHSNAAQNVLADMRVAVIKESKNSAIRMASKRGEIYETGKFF
As to the kind of experiment: Growth inhibition of yeast strain expressing Ole1 as sole desaturase. The class given is cell-based. Particulars: yeast strain expressing Ole1 as sole desaturase. In outline:
as §1

The test system of assay [3] is yeast strains expressing the human α-synuclein. As to the kind of experiment: Yeast α-synuclein toxicity rescue assay (OD600 growth). Particulars: 40 h; for EC50: read-out: α-Syn EC50; for Emax: read-out: α-Syn Emax.
The target in assay [4] is T3, SCD1 (Homo sapiens, UniProt O00767).
T3 construct: host or cells: S. cerevisiae ole1Δ strain (W303 pdr1Δ pdr3Δ background), plasmid pRS316 with TDH3 promoter and CYC1 terminator
T3 sequence (O00767 1-359): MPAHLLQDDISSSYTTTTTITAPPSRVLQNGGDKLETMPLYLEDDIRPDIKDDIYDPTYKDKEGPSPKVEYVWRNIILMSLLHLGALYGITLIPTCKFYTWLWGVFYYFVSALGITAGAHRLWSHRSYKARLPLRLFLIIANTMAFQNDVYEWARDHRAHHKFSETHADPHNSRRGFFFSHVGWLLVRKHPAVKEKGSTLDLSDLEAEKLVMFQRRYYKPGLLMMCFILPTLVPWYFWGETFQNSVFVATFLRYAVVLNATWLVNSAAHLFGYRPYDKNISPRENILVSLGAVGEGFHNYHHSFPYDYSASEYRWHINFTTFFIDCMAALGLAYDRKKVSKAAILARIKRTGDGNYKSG
Nature of the assay: Growth inhibition of humanized yeast strain expressing SCD1 as sole desaturase. The conditions noted are these: humanized yeast strain expressing SCD1. Type of assay: cell-based. The procedure, abridged:
as §1

Assay [5] relates to yeast strains expressing the human ApoE4. As to the kind of experiment: Yeast ApoE4 toxicity rescue assay (OD600 growth). Particulars: 24 h; for EC50: read-out: ApoE4 EC50; for Emax: read-out: ApoE4 Emax.

For `COc1ccc(-c2noc(C3CCN(C(=O)C(C)NC(=O)c4ccccc4)CC3)n2)cc1OC` (stereo not drawn) [Compound 28], in assay [1], the half-inhibitory concentration (IC50) was above 45 µM and the “SCD5 % Max Inhibition” value is 79.98%. In addition, in assay [2], the half-inhibitory concentration (IC50) was above 45 µM and the “OLE1 % Max Inhibition” value amounted to 4.80%. Moreover, in assay [3], the concentration giving a half-maximal response (EC50) is 0.066 µM and the Emax was determined as 576%. In assay [4], the half-inhibitory concentration (IC50) is above 45 µM and the “SCD1 % Max Inhibition” value is on record as 98.15%. For the same molecule, in assay [5], the concentration for a half-maximal effect (EC50) is 1.59 µM and the Emax was 836%.
In the case of `CC(C)c1ccc(C(=O)N2CCC(c3noc(-c4cccc(F)c4)n3)CC2)cc1` [Compound 52], in assay [1], the 50% inhibitory concentration (IC50) is above 45 µM and the “SCD5 % Max Inhibition” value was −1.01%. Further, in assay [2], the concentration for half-maximal inhibition (IC50) is above 45 µM and the “OLE1 % Max Inhibition” value was 11.78%. In addition, in assay [3], the EC50 was found to be 9.06 µM and the Emax turned out to be 82%. Besides, in assay [4], the IC50 was above 45 µM and the “SCD1 % Max Inhibition” value turned out to be 1.65%. Moreover, in assay [5], the EC50 was determined as 14.5 µM and the Emax turned out to be 154%.
As to `COc1ccc(-c2noc(C3CCN(C(=O)CNC(=O)C4CCCCC4)CC3)n2)cc1OC` [Compound 48], in assay [1], the concentration for half-maximal inhibition (IC50) is above 45 µM and the “SCD5 % Max Inhibition” value turned out to be 75.26%. Moreover, in assay [2], the IC50 was above 45 µM and the “OLE1 % Max Inhibition” value was determined as 8.16%. Besides, in assay [3], the concentration giving a half-maximal response (EC50) worked out at 1.47 µM and the Emax was determined as 615%. In addition, in assay [4], the 50% inhibitory concentration (IC50) worked out at 39.3 µM and the “SCD1 % Max Inhibition” value is recorded as 63.58%. Besides, in assay [5], the half-maximal effective concentration (EC50) worked out at 2.94 µM and the Emax was 874%.
`COc1ccc(-c2noc(C3CCN(C(=O)CNC(=O)c4ccc(C)c(C)c4)CC3)n2)cc1OC` [compound 15]: the 50% inhibitory concentration (IC50) in assay [1], in assay [2] and in assay [4] was above 45 µM throughout. Also, the concentration for a half-maximal effect (EC50) in assay [3] came to 1.71 µM; in assay [5], 3.63 µM. In addition, the Emax came to 628% in assay [3] and 866% in assay [5].
On to `COc1ccc(-c2noc(C3CCN(C(=O)CNC(=O)c4ccc(Cl)cc4)CC3)n2)cc1OC` [compound 27], for which the IC50 in assay [1], in assay [2] and in assay [4] was above 45 µM in each case. The EC50 was 0.059 µM in assay [3] and 0.39 µM in assay [5]. Moreover, the Emax amounted to 589% in assay [3] and 761% in assay [5].
Consider `COc1ccc(-c2noc(C3CCN(C(=O)CNC(=O)c4ccccc4)CC3)n2)cc1OC` [Compound 7], for which the IC50 is above 45 µM in assay [1], above 45 µM in assay [2] and 39.2 µM in assay [4]. The concentration for a half-maximal effect (EC50) was 0.04 µM in assay [3] and 0.176 µM in assay [5]. The Emax in assay [3] turned out to be 594%; in assay [5] it was 782%.
Take `COc1ccc(-c2csc(C3CCN(C(=O)CNC(=O)c4ccccc4)CC3)n2)cc1OC` [Compound 38]: in assay [1], half-maximal inhibition (IC50) required 41 µM and the “SCD5 % Max Inhibition” value turned out to be 64.24%. In addition, in assay [2], the concentration for half-maximal inhibition (IC50) was above 45 µM and the “OLE1 % Max Inhibition” value was 20.26%. For the same molecule, in assay [3], the EC50 turned out to be 3.3 µM and the Emax is 336%. For the same molecule, in assay [4], the half-maximal inhibitory concentration (IC50) is above 45 µM and the “SCD1 % Max Inhibition” value stood at 72.81%. In addition, in assay [5], the EC50 was 6.01 µM and the Emax was determined as 750%.
With `CCOc1ccc(-c2noc(N3CCC(C(=O)N4CCCC(c5ccccc5)C4)CC3)n2)cc1OC` (stereo not drawn) [compound 100], the IC50 in assay [1] was above 45 µM; in assay [2], above 45 µM; in assay [4], 32.8 µM. Further, the EC50 came to 1.19 µM in assay [3] and 2.11 µM in assay [5]. The Emax amounted to 385% in assay [3] and 651% in assay [5].
Take `COc1ccc(-c2noc(C3CCN(C(=O)CNC(=O)c4ccccc4)CC3)n2)cc1` [compound 10]: the IC50 in assay [1], in assay [2] and in assay [4] was above 45 µM throughout. In addition, the EC50 in assay [3] came out at 4.87 µM; in assay [5] it was 4.61 µM. Moreover, the Emax in assay [3] came to 392%; in assay [5] it was 736%.
`COc1ccc(-c2noc(C3CCN(C(=O)CNC(=O)c4cccc(Cl)c4)CC3)n2)cc1OC` [compound 26]: the IC50 in assay [1] was 24.5 µM; in assay [2], above 45 µM; in assay [4], above 45 µM. The EC50 in assay [3] worked out at 0.042 µM; in assay [5] it was 0.377 µM. Also, the results for the Emax in assay [3] and in assay [5] were 608% and 811%, respectively.
Consider `O=C(NCC(=O)N1CCC(c2nc(-c3ccc(Cl)c(Cl)c3)no2)CC1)c1ccccc1` [compound 23], for which the half-inhibitory concentration (IC50) in assay [1] is above 45 µM; in assay [2] it was above 45 µM; in assay [4] it was 33.6 µM. In addition, the values for the half-maximal effective concentration (EC50) in assay [3] and in assay [5] were 7.68 µM and 6.51 µM, respectively. Besides, the figures for the Emax in assay [3] and in assay [5] were 182% and 466%, respectively.
For the molecule `COc1ccc(-c2noc(C3CCN(C(=O)COCc4ccccc4)CC3)n2)cc1OC` [Compound 31], in assay [1], the half-maximal inhibitory concentration (IC50) is 25.4 µM and the “SCD5 % Max Inhibition” value is 24.26%. Besides, in assay [2], the IC50 was above 45 µM and the “OLE1 % Max Inhibition” value amounted to 79.60%. In addition, in assay [3], the EC50 stood at 7.51 µM and the Emax worked out at 438%. Also, in assay [4], the 50% inhibitory concentration (IC50) was above 45 µM and the “SCD1 % Max Inhibition” value came to 81.19%. Further, in assay [5], the EC50 came to 9.81 µM and the Emax came out at 721%.
In the case of `CCOc1ccc(-c2noc(C3CCN(C(=O)[C@H]4CC(=O)N(c5ccccc5)C4)CC3)n2)cc1OC` [compound 85], the IC50 in assay [1], in assay [2] and in assay [4] was above 45 µM in each case. The results for the concentration for a half-maximal effect (EC50) in assay [3] and in assay [5] were 12.6 µM and 17 µM, respectively. In addition, the Emax came to 486% in assay [3] and 602% in assay [5].
`COc1ccc(-c2nc(C3CCN(C(=O)CNC(=O)c4ccccc4)CC3)no2)cc1OC` [Compound 36]: in assay [1], the half-maximal inhibitory concentration (IC50) was above 45 µM and the “SCD5 % Max Inhibition” value is reported as 63.86%. Besides, in assay [2], the IC50 was above 45 µM and the “OLE1 % Max Inhibition” value is on record as 17.70%. In assay [3], the EC50 was 1.76 µM and the Emax was 629%. In addition, in assay [4], 30 µM corresponded to half-maximal inhibition (IC50) and the “SCD1 % Max Inhibition” value is 64.67%. In assay [5], the 50% effective concentration (EC50) was 2.15 µM and the Emax worked out at 908%.
Regarding `COc1ccc(-c2noc(C3CCN(C(=O)[C@H]4CC(=O)N(c5ccc(C)c(C)c5)C4)CC3)n2)cc1` [Compound 64], in assay [1], the half-inhibitory concentration (IC50) was above 45 µM and the “SCD5 % Max Inhibition” value worked out at 42.05%. For the same molecule, in assay [2], the half-inhibitory concentration (IC50) was above 45 µM and the “OLE1 % Max Inhibition” value worked out at 115.95%. Also, in assay [3], the half-maximal effective concentration (EC50) was found to be 13.7 µM and the Emax was 228%. In assay [4], the concentration for half-maximal inhibition (IC50) is above 45 µM and the “SCD1 % Max Inhibition” value amounted to 32.39%. Also, in assay [5], the half-maximal effective concentration (EC50) was determined as 15.3 µM and the Emax was 330%.
In the case of `COc1ccc(-c2noc(C3CCN(C(=O)C4CC(=O)N(c5ccc(C)c(C)c5)C4)CC3)n2)cc1OC` (stereo not drawn) [compound 19], the half-inhibitory concentration (IC50) in assay [1], in assay [2] and in assay [4] was above 45 µM each time. Also, the EC50 in assay [3] was determined as 2.43 µM; in assay [5] it was 5.63 µM. In addition, the Emax in assay [3] is 574%; in assay [5] it was 891%.
Take `COc1cccc(-c2noc(C3CCN(C(=O)[C@@H]4CC(=O)N(c5ccc(C)c(C)c5)C4)CC3)n2)c1` (single isomer, unassigned) [compound 69]: the 50% inhibitory concentration (IC50) in assay [1], in assay [2] and in assay [4] was above 45 µM each time. The Emax in assay [3] came to 294%; in assay [5] it was 387%.
